Two molecules from patent US9750934B2, “Treating bacteria with electric fields” (Novocure Limited, priority 2000, dated 2017) can be followed below.

Structures are written as SMILES. Values joined by “and” are separate entries in the source; they are usually repeats but may differ in a detail not shown here. Equal values may be shown once.

Experiment [1] deals with S. aureus. Kind of experiment: Checkerboard test of the combined effect of electric fields and chloramphenicol on growth of S. aureus. It is filed as cell-based, Staphylococcus aureus strain SH1000. As to the method:
At the end of treatment, the cultures were stirred several times by up and down pipetting. Four aliquots of 250 μl were dispensed into a 96 MicroWells plate (Nunclon™ Δ, Nunc, Denmark) and the OD was determined spectrophotometrically with a microplate reader (Infinite 200, Tecan, Austria) at 750 nm. The optical densities (ODs) of the blanks, which consisted of uninoculated LB, were subtracted from the ODs of the inoculated plates. The percentage of growth for each well was calculated by dividing the OD of the wells by that of the control: (OD750mm of treated wells/OD750nm of the control well)×100.
Drug interactions with the electric fields were assessed according to the checkerboard method, with the following modifications: S. aureus inocula were diluted in LB medium containing the antibiotic to final concentration of 0.5 to 1.0×10^5 CFU/ml. The final concentrations of the chloramphenicol ranged from 0.125 to 16 μg/ml. Petri dishes containing the electric fields chamber were filled with 7 ml of the diluted cultures, and placed inside a pre cooled incubator. Fields were applied for 6 hours with the field direction alternating every 300 ms and the field intensities were varied by changing the incubator ambient temperature. Thus, lower ambient temperatures allowed for higher field intensities while maintaining the proper culture temperature of 37° C. Control plates containing the same electric fields chambers were placed in a pre-warmed incubator set at 37° C. At the end of the treatment, the cultures were stirred by pipetting the plate content up and down. Quadruplicates of 250 μl each were transferred to a 96 MicroWells plate (Nunc) and the OD was determined using Tecan microplate reader. Cultures were subjected to serial 10-fold dilution (up to 1/10,000) by adding 20 μl of sample to 180 μl of saline solution (0.85% NaCl), from which 80 μl aliquots were plated on LB agar plates (1.5% agar, 1.0% Bacto tryptone, 1% NaCl, 0.5% Yeast extract). CFU counts were performed after overnight incubation at 37° C.
To evaluate the effect of the combinations, the fractional inhibitory concentration (FIC) was calculated for the electric fields and for each antibiotic. The following formulas were used to calculate the FIC index: FIC of electric fields=MIC of electric fields in combination/MIC of electric fields alone, FIC of drug B=MIC of drug B in combination/MIC of drug B alone, and FIC index=FIC of electric fields+FIC of drug B. Synergy was defined as an FIC index of ≦0.5. Indifference was defined as an FIC index of >0.5 but of ≦4. Antagonism was defined as an FIC index of >4.

Experiment [2] relates to S. aureus. Description: MIC of antibiotic by serial twofold dilutions (NCCLS guidelines). The format is cell-based, Staphylococcus aureus strain SH1000. The note with it: Staphylococcus aureus; chloramphenicol alone; lowest concentration that completely inhibited growth; read-out: MIC against S. aureus. As to the method:
Experiments were also performed on two different types of bacteria—Pseudomonas aeruginosa strain PAO1 and Staphylococcus aureus strain SH1000. All strains were grown in LB media (1.0% Bacto tryptone, 0.5% Yeast extract, 1% NaCl). Broth cultures of freshly plated bacteria strains were grown in 3 ml of liquid medium at 37° C. for 15 hours in an orbital shaker (220 RPM) and diluted in fresh LB broth to a predetermined absorbance at 595 nm which yielded the desired CFU per ml.
The combined effect of the electric fields and antibiotics was also tested. Chloramphenicol was obtained as powder and dissolved in EtOH (99%, Frutarom). All the stock solutions were filter sterilized and held at −20° C. until use. Serial twofold dilutions of each antibiotic agent were prepared following NCCLS guidelines. […] The MIC of electric fields was defined as the lowest intensity that inhibits growth by 80% or more compared with control, as determined using the microplate reader.

For experiment [3], the system named is P. aeruginosa strain PAO1. Description: P. aeruginosa pulmonary infection in neutropenic ICR mice, ceftazidime alone or combined with electric fields / sham heat. The format is in vivo, Pseudomonas aeruginosa. Conditions: for Average lungs weight, weight in mg (±STDEV): end of 48 hour treatment. As to the method: In vivo experiments were also performed on Pseudomonas aeruginosa strain PAO1 in lungs of infected mice. For this example, bacteria were grown in LB media (1.0% Bacto tryptone, 0.5% Yeast extract, 1.0% NaCl (Frutarom, Haifa, Israel). Broth cultures of freshly plated bacteria were grown in 250 ml of liquid medium at 37° C. in an orbital shaker at 220 RPM (New Brunswick Scientific, N.J., USA) up to logarithmic phase, centrifuged and resuspended in saline containing 15% glycerol. Stocks were divided into aliquots of 50 μl each containing 2.17×10^7 Colony Forming Units (CFU)/ml and kept at −70° C. until use.
Experiments were conducted on 7- to 8-week-old (body weight 26-35 g) ICR female mice obtained from Harlan laboratories (Israel). Mice were housed under standard conditions of light and temperature, and were fed standard laboratory chow and water ad libitum. Electric fields were generated by 2 pairs of parallel metal electrodes, 15 mm-long; 3 mm-high. The front of the electrodes was completely insulated from the medium by a ceramic [(lead magnesium niobate-lead titanate (PMN-PT) (EDO, New York, N.Y.)] having a very high dielectric constant (∈>5000) such that their capacitance was about 10 nF each. The back of the electrodes was insulated by a 2.5 mm thick layer of 353ND medical grade epoxy (Epoxy Technology, Billerica, Mass., USA). Each electrode contained a thermistor placed within the epoxy directly on top of the ceramic in order to allow for constant monitoring of the electrodes' temperature.
Two control groups were set in each experiment: sham heat control, and non treated control (referred to as “Control”). Control electrodes of identical size and shape to the electric fields electrodes, were placed on mice of the two control groups. The Sham heat electrodes produced equal temperature changes to those produced by the field electrodes by means of a heating resistor incorporated within them, and the sham heat electrodes were placed in the same positions as the real electrodes. Except for the differences in the electrodes, the control mice and the sham heat treated mice were held in conditions identical to those of the electric fields treated mice.
Mice were rendered neutropenic (neutrophil counts, <100/mm^3), as described in Andes and Craig (1998), by two intraperitoneal injections of cyclophosphamide; four days before infection (150 mg/kg of body weight) and an additional injection one day before infection (100 mg/kg of body weight). The pulmonary infection model of Takeda et al., (2006) was used with minor modifications: Anesthetized ICR mice were challenged intra-nasally with 20 μL of saline containing various concentrations (10^4-10^7 CFU/ml) of P. aeruginosa strain PAO1. On the day of infection, immediately before use, frozen bacterial cultures were thawed and diluted in saline to the desired concentration. Anesthetized mice were challenged intra-nasally with the bacterial suspension. Mice were sacrificed at 0, 3, 6, 9, 24, and 48 hours after infection in order to determine CFU counts in their lungs. After skin disinfection with 70% alcohol, lungs from sacrificed mice were removed aseptically, photographed, weighted and their CFU content was determined.
Application of electric fields to the mouse torso was carried out as follows: 4 days before infection, the torso of anesthetized mice was shaved with electrical clippers and depilated using cold wax. Electric fields treatment was applied through four insulated electrodes placed around the mouse torso so as to generate fields of two perpendicular directions. Mice were placed inside the IVC cages and the electrodes were connected to the connection box. Application of electric fields began 3 hours after infection and was maintained for 48 h with two brief stops daily for monitoring the physical condition of the mice. After 48 h of treatment, the mice were sacrificed and bacterial numbers in lung were determined. […]

On to `O=C(N[C@H](CO)[C@H](O)c1ccc([N+](=O)[O-])cc1)C(Cl)Cl` [chloramphenicol, Chloramphenicol], for which, in the experiment with S. aureus [1] (S. aureus, 10 MHz fields, 6 hours), the “combined effect of electric fields and chloramphenicol” value is on record as “additive effect”. For the same molecule, the “growth of S. aureus relative to control” value with S. aureus [1] (chloramphenicol 0.25 μg/ml, 0 V/cm, 6 hours) stood at 66%; in the experiment on S. aureus [1] (chloramphenicol 0.25 μg/ml, 0.5-2.0 V/cm 10 MHz fields, 6 hours), 39%; with S. aureus [1] (chloramphenicol 0.25 μg/ml, 2.0-2.5 V/cm 10 MHz fields, 6 hours), 51%; with S. aureus [1] (chloramphenicol 0.25 μg/ml, 3.5-4.5 V/cm 10 MHz fields, 6 hours), 13%; with S. aureus [1] (chloramphenicol 0.5 μg/ml, 0 V/cm, 6 hours) it was 45%; in the experiment on S. aureus [1] (chloramphenicol 0.5 μg/ml, 0.5-2.0 V/cm 10 MHz fields, 6 hours) it was 16%. Further, the “growth of S. aureus relative to control” value in the experiment on S. aureus [1] (chloramphenicol 0.5 μg/ml, 2.0-2.5 V/cm 10 MHz fields, 6 hours) is listed as 20%; in the experiment with S. aureus [1] (chloramphenicol 0.5 μg/ml, 3.5-4.5 V/cm 10 MHz fields, 6 hours) it was 21%; in the experiment on S. aureus [1] (chloramphenicol 1 μg/ml, 0 V/cm, 6 hours), 30%; with S. aureus [1] (chloramphenicol 1 μg/ml, 0.5-2.0 V/cm 10 MHz fields, 6 hours) it was 26%; with S. aureus [1] (chloramphenicol 1 μg/ml, 2.0-2.5 V/cm 10 MHz fields, 6 hours), 6%; in the experiment on S. aureus [1] (chloramphenicol 1 μg/ml, 3.5-4.5 V/cm 10 MHz fields, 6 hours) it was 2%. The “growth of S. aureus relative to control” value with S. aureus [1] (chloramphenicol 4 μg/ml, 0 V/cm, 6 hours) worked out at 7%; in the experiment with S. aureus [1] (chloramphenicol 4 μg/ml, 0.5-2.0 V/cm 10 MHz fields, 6 hours), 13%; in the experiment with S. aureus [1] (chloramphenicol 4 μg/ml, 2.0-2.5 V/cm 10 MHz fields, 6 hours), 2%; in the experiment with S. aureus [1] (chloramphenicol 4 μg/ml, 3.5-4.5 V/cm 10 MHz fields, 6 hours), 0%. The FIC index with S. aureus [1] (electric fields + chloramphenicol, based on OD measurements) is recorded as 0.625. Besides, in the experiment on S. aureus [1] (in the presence of 4 V/cm 10 MHz electric fields applied for 6 hours, field direction alternating every 300 ms), the “concentration sufficient to produce complete inhibition of the growth of S. aureus in combination with electric fields” value is 1 µg/mL. For the same molecule, the MIC – broadly, the lowest concentration that inhibits growth of the organism – in the experiment on S. aureus [2] worked out at 4 µg/mL.
On to `CC(C)(O/N=C(\C(=O)N[C@@H]1C(=O)N2C(C(=O)[O-])=C(C[n+]3ccccc3)CS[C@H]12)c1csc(N)n1)C(=O)O` [ceftazidime, Ceftazidime], for which the “reduction in the lung CFU content compared to the antibiotic-only treated control” value in experiment [3] (48 h combined treatment of electric fields and ceftazidime) is recorded as 1.5 log. For the same molecule, the “Log CFU (T48) ± STDEV, number of bacteria in the lungs of infected mice” value in experiment [3] (ceftazidime 5 mg/kg i.p. twice daily + electric fields, 48 h) stood at 5.0 ± 1.7 Log CFU; in experiment [3] (ceftazidime 5 mg/kg i.p. twice daily + sham heat, 48 h), 6.0 ± 2.3 Log CFU; in experiment [3] (ceftazidime 5 mg/kg i.p. twice daily alone (control of the with-ceftazidime groups), 48 h), 6.5 ± 2.5 Log CFU. Also, in experiment [3] (ceftazidime 10 mg/kg BW/day alone), the “growth reduction compared to the non treated lungs” value was ~2 logs. Moreover, the “log CFU/lung (T48/T0) (±STDEV), P. aeruginosa growth in mice lungs” value in experiment [3] (ceftazidime + electric fields, 48 h) is 0.4 log CFU/lung and 0.4 ± 1.7 log CFU/lung; in experiment [3] (ceftazidime + sham heat, 48 h) it was 1.3 ± 2.2 log CFU/lung; in experiment [3] (ceftazidime alone (control), 10 mg/kg BW/day, 48 h, 10 mg/kg/day), 1.9 log CFU/lung and 1.9 ± 2.5 log CFU/lung. In addition, the “Average lungs weight, weight in mg (±STDEV)” value in experiment [3] (ceftazidime + electric fields) is recorded as 244 ± 31 mg; in experiment [3] (ceftazidime + sham heat), 275 ± 60 mg; in experiment [3] (ceftazidime alone (control)), 310 ± 77 mg. For the same molecule, in experiment [3] (combined treatment of sham heat and ceftazidime, 48 h), the “lung CFU count reduction compared to the control” value is given as “did not result in a significant count reduction”.
